Measured values taken from patent publication US12428412B2 (DANA-FARBER CANCER INSTITUTE, INC., priority 2018, dated 2025).
“Also recorded” adds a separate entry of the source.

Assays:
[1] = molecular target: T1, EP300 (Homo sapiens, UniProt Q09472); experiment: Cellular degradation assay (immunoblot) in Kelly NB cells, EP300; type: cell-based; conditions: dose or time dependent
T1 construct: Whole cell lysates were collected using ice cold lysis buffer; endogenous in cells; host or cells: Kelly neuroblastoma cells (incl. Ch2.2, LACZ and CRBN knockout lines)
Description: (§1) Kelly Neuroblastoma cells were seeded at 1,000,000 cells per well in 6 well plates and were treated in a dose-dependent manner for 24 to 72 hours. Whole cell lysates were collected using ice cold lysis buffer [300 mM NaCl, 50 mM Tris-HCl, pH 7.5, 0.5% Triton X-100, 1% SDS, 1 mM dithiothreitol (DTT), Roche® protease inhibitor cocktail (1:000), 25 units/mL Benzonase] and blotted at a protein concentration of 20 μg. Histone extraction was performed using the EpiQuik™ Total Histone Extraction Kit (OP-0006-100, Epigentek) and blotted at a protein concentration of 4 μg.
(§2) Whole cell lysates were resolved in NuPAGE® 3-8% Tris-Acetate polyacrylamide gels (EA03785BOX, Invitrogen™) and histone extraction lysates in Bolt 4-12% Bis-Tris polyacrylamide gels (NWO4125BOX, Invitrogen™). Afterwards, gels were transferred to nitrocellulose membranes (LC2001, Invitrogen™). […]
(§3) The experimental protocol is the same as in Example 24. The protein level was determined by immunoblot using EP300 antibody, CBP antibody or H3K27ac antibody. […]

[2] = tested on: H3K27Ac; experiment: Immunohistochemistry (IHC) staining of liver from MTD study, H3K27Ac; type: in vivo; conditions: normal mice, 40 mpk, 14-day treatment
Description: (§4) Immunohistochemistry (IHC) staining was used to examine a liver from MTD study. […] No changes in CBP and H3K27Ac levels were observed.

[3] = molecular target: T1, EP300; experiment: Proteomics analysis in Kelly NB cells, EP300; type: cell-based; conditions: 500 nM, 6 hours and 36 hours
Description: (§5) FIG. 9C is a plot of the proteomics analysis results after treating Kelly NB cells with CPD 1 (500 nM) at 6 hours and 36 hours.

[4] = tested on: MM.1S cells; experiment: 4-day growth inhibition assay (ATPlite / cell counting kit), MM.1S cells; type: cell-based; conditions: 0-10 μM
Description: (§6) An aliquot of the ATP standard solution (ATPlite™ 1000 assay kit, PerkinElmer®, USA) was used to prepare a dilution series in water. A series of 100 μL of complete culture medium was pipetted without cells into the wells of the plate. To each well was added 50 μL of the mammalian cell lysis solution, and the plate was shaken for 5 minutes in an orbital shaker at 700 rpm. 10 μL of the ATP dilution series was added to the wells, and the plate was shaken for 5 minutes in an orbital shaker at 700 rpm. 50 μL of the substrate solution was added and the plate was shaken for 5 minutes in an orbital shaker at 700 rpm. The plate dark adapted the plate for 10 minutes prior to measuring the luminescence and then preparing a standard curve.

[5] = Maximum tolerated dose (MTD) study in mice; type: in vivo; conditions: mice, 10, 20 and 40 mg/kg
Description: CPD 1 was tested in mice for maximum tolerated dose (MTD) (FIG. 6A). The mice were treated with 10 mg/kg (mpk), 20 mpk, and 40 mpk with 4 mice in each group. The compound was also tested in human CRBN knock in mice, the blood samples were collected after 21 day treatment. All the tested blood samples were normal.

[6] = tested on: U266 cells; experiment: 6-day MTT assay, U266 cells; type: cell-based; conditions: 0-10 μM
Description: (§7) Media from cell cultures was discarded. For adherent cells, the media was carefully aspirated. For suspension cells, the 96 well plate at 1,000×g, 4° C., was spun for 5 minutes in a microplate-compatible centrifuge and the media was carefully aspirated. The volume of existing media has to be the same for each sample. Fifty (50) μL of serum-free media and 50 μL of MTT solution were added into each well. The plate was incubated at 37° C. for 3 hours.
(§8) After incubation, 150 μL of MTT solvent were added into each well. The plate was wrapped in foil and shaken on an orbital shaker for 15 minutes. Absorbance was read at OD=590 nm. Reading was performed within 1 hour.

[7] = molecular target: T1, EP300; experiment: Immunoblot in CRBN knockout Kelly cell lines, EP300; type: cell-based; conditions: CRBN-1 and CRBN-3 Kelly lines, 500 nM
Description: (§9) CPD 1 was tested in CRBN knockout (k/o) Kelly cell lines. The experimental protocol is the same as in Example 24.

[8] = molecular target: T2, CBP (Homo sapiens, UniProt Q92793); experiment: Cellular degradation assay (immunoblot) in Kelly NB cells, CBP; type: cell-based
T2 construct: endogenous in cells; host or cells: Kelly neuroblastoma cells (incl. Ch2.2, LACZ and CRBN knockout lines)
Description: as §1, §2, §3

[9] = molecular target: T3, EP300 (Mus musculus, UniProt B2RWS6); experiment: Immunohistochemistry (IHC) staining of liver from MTD study, EP300; type: in vivo; conditions: normal mice, 40 mpk, 14-day treatment
T3 construct: from tissue; host or cells: mouse liver (CD1 mice)
Description: as §4

[10] = molecular target: T2, CBP; experiment: Proteomics analysis in Kelly NB cells, CBP; type: cell-based; conditions: 500 nM, 6 hours and 36 hours
Description: as §5

[11] = tested on: MM.1S cells; experiment: 6-day MTT assay, MM.1S cells; type: cell-based; conditions: 0-10 μM
Description: as §7, §8

[12] = tested on: CRBN k/o cell lines; experiment: Cell viability in CRBN knockout Kelly cell lines; type: cell-based
Description: as §9

[13] = tested on: U266 cells; experiment: 4-day growth inhibition assay (ATPlite / cell counting kit), U266 cells; type: cell-based; conditions: 0-10 μM
Description: as §6

[14] = tested on: Kelly cells; experiment: ATPlite cell growth inhibition assay, Kelly cell lines treated 72 hours; type: cell-based
Description: Compounds CPD 1 to CPD 22 were tested via ATPlite™ assay (ATPlite™ 1000 assay kit, PerkinElmer®, USA) using standard protocol. […] The signal is normalized to DMSO treated cells.

[15] = molecular target: T2, CBP; experiment: Immunoblot in CRBN knockout Kelly cell lines, CBP; type: cell-based; conditions: CRBN-1 and CRBN-3 Kelly lines, 500 nM
Description: as §9

[16] = molecular target: T4, CBP (Mus musculus, UniProt P45481); experiment: Immunohistochemistry (IHC) staining of liver from MTD study, CBP; type: in vivo; conditions: normal mice, 40 mpk, 14-day treatment
T4 construct: from tissue; host or cells: mouse liver (CD1 mice)
Description: as §4

T2 sequence (Q92793 whole entry): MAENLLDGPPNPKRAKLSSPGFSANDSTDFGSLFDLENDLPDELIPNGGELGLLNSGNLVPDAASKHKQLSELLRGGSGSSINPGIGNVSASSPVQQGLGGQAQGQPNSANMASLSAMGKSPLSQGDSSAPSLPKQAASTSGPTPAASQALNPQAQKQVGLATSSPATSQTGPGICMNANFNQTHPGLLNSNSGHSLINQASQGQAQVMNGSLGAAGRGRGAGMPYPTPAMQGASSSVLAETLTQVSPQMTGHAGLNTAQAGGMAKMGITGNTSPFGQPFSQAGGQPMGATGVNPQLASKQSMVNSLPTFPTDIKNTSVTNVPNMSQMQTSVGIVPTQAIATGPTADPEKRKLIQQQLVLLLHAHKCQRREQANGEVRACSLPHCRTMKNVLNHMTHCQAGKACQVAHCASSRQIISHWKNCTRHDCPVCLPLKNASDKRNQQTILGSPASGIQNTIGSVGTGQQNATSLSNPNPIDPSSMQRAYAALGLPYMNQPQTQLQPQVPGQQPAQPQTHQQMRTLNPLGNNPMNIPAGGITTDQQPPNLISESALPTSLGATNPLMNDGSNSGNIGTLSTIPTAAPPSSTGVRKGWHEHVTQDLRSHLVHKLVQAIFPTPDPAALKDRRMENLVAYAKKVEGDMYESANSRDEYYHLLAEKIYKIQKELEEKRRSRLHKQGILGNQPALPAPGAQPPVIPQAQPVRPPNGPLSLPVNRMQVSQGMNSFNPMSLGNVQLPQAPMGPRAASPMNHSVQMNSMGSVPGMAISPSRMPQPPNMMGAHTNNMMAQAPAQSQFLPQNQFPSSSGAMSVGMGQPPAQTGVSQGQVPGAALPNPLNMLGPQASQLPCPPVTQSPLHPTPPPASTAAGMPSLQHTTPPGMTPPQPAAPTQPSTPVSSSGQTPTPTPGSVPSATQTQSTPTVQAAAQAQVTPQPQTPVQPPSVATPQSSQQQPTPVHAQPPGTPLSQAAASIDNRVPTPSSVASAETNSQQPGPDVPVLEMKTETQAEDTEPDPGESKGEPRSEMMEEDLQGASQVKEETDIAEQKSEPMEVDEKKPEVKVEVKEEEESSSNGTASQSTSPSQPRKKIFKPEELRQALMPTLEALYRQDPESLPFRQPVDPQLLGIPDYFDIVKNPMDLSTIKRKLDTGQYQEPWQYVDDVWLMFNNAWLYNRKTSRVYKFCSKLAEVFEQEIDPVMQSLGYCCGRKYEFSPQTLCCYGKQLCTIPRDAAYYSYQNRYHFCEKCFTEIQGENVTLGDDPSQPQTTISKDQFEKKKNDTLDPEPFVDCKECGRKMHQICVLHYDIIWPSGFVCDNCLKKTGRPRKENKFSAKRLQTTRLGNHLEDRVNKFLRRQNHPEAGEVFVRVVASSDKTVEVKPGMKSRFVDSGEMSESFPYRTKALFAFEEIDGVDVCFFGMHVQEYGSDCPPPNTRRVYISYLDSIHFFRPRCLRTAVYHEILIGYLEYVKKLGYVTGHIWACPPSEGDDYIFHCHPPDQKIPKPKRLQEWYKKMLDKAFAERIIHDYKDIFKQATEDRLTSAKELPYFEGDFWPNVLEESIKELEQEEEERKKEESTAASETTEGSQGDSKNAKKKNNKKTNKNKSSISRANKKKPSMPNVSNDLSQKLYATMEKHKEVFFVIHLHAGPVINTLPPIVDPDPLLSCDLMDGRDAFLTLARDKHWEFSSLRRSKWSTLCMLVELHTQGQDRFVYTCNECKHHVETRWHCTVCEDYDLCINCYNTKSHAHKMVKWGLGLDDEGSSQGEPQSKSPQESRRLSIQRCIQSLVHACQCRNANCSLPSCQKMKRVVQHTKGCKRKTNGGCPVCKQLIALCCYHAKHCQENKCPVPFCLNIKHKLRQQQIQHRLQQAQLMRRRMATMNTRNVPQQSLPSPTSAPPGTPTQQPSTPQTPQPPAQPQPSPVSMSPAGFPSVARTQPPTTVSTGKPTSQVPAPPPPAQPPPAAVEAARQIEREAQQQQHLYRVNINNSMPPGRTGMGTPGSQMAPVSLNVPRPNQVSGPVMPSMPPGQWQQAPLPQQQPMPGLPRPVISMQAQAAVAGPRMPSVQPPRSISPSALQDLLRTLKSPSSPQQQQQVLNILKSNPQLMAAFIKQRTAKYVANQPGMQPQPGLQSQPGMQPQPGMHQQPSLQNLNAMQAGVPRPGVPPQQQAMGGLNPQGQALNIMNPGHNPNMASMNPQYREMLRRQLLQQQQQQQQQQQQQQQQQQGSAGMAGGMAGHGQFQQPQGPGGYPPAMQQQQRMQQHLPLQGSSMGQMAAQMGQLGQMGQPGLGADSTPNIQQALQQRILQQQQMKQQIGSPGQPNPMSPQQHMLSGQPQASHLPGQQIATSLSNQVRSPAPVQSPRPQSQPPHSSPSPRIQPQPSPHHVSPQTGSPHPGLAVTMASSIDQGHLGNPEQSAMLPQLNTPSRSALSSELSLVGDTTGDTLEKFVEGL
T1 sequence (Q09472 whole entry): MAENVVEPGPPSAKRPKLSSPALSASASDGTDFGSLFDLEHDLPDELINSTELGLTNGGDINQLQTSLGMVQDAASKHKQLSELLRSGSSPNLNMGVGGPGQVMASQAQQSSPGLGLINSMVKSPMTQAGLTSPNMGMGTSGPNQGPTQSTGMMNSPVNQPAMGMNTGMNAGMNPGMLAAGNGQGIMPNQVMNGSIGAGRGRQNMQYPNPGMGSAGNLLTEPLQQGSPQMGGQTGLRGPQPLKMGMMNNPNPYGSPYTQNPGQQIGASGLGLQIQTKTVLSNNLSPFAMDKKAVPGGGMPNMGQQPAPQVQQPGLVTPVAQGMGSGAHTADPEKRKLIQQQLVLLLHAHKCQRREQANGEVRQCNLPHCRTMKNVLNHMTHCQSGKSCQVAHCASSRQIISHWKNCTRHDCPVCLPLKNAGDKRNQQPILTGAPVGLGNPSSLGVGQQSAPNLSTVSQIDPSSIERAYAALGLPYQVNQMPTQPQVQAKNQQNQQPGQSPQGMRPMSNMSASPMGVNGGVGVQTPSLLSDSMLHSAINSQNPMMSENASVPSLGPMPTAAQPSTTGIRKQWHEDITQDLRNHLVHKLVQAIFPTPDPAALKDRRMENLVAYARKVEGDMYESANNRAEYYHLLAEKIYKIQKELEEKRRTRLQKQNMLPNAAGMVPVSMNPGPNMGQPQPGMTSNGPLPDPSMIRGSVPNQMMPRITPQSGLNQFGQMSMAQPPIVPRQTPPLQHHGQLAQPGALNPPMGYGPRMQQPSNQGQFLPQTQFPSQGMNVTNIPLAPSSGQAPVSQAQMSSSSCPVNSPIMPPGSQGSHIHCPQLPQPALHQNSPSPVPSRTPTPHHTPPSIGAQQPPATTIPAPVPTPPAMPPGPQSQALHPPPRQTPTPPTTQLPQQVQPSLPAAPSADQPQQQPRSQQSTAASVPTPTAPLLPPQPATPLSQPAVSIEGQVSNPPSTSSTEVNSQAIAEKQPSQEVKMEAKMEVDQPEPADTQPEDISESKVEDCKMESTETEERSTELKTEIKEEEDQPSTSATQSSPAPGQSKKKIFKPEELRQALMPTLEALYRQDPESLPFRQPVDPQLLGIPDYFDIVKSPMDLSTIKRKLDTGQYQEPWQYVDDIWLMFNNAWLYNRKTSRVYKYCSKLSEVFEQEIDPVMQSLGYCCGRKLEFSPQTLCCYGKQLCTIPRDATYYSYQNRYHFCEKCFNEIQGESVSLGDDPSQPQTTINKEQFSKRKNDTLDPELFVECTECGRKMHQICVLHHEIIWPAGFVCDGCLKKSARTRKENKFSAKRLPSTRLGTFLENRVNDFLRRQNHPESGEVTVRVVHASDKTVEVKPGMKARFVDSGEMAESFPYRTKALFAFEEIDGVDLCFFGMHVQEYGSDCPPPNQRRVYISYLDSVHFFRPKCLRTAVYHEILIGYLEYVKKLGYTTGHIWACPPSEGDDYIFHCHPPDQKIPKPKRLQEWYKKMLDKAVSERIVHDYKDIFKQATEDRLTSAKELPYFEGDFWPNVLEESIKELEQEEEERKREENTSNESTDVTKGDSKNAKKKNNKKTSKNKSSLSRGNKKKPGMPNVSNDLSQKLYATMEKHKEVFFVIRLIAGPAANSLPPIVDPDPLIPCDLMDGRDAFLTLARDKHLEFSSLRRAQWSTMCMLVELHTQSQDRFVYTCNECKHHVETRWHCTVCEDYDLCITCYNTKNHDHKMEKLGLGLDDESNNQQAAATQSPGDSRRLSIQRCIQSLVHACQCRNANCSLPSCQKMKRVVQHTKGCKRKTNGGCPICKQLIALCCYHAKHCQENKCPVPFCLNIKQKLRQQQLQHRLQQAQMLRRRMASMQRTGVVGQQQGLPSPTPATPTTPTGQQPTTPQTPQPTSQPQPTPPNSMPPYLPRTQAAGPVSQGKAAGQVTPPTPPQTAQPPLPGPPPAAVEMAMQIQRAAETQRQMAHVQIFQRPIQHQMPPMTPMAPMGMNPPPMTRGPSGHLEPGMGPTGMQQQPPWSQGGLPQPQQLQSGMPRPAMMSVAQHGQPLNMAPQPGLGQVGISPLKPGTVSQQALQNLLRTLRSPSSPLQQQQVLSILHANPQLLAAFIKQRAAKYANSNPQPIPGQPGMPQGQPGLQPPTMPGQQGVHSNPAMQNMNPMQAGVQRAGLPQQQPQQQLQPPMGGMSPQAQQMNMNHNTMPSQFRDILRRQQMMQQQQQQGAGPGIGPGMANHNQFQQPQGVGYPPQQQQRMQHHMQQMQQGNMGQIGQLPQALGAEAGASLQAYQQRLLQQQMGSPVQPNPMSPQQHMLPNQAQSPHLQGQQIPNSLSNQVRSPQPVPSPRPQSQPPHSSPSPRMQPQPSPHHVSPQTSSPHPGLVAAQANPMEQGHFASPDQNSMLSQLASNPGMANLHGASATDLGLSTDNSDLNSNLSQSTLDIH

## C[C@H](N(Cc1ccc(F)cc1)C(=O)CN1C(=O)O[C@@]2(CCc3cc(NC(=O)CCCCCCCCCCCNc4ccc5c(c4)C(=O)N(C4CCC(=O)NC4=O)C5=O)ccc32)C1=O)C(F)(F)F (stereo partly drawn) [CPD 1, 12-((2-(2,6-dioxopiperidin-3-yl)-1,3-dioxoisoindolin-5-yl)amino)-N—((R)-3′-(2-((4-fluorobenzyl)((S)-1,1,1-trifluoropropan-2-yl)amino)-2-oxoethyl)-2′,4′-dioxo-2,3-dihydrospiro[indene-1,5′-oxazolidin]-5-yl)dodecanamide]
[1]
  EP300 degradation: selective degradation of EP300; also recorded: clear degradation of EP300
[2]
  H3K27Ac level in liver tissue: No changes
[3]
  EP300 degradation (proteomics): selectively and significantly degraded
[4]
  growth inhibition compared with A485: outperformed inhibitor A485
[5]
  body weight loss: no weight loss was observed
  tolerability: well tolerated
[6]
  growth inhibition compared with A485: outperformed inhibitor A485
[7]
  EP300 degradation in CRBN k/o lines: did not degrade
[8]; after 48 hour
  CBP degradation: degradation of CBP was observed
[8]; first 36 hours
  CBP level: without affecting the CBP level
[9]
  EP300 (P300) level in liver tissue: A drop in P300 levels was observed
[10]
  CBP level (proteomics): No changes in the CBP level were observed
[11]
  growth inhibition compared with A485: outperformed inhibitor A485
[12]
  cell growth inhibition in CRBN k/o cell lines: did not affect CRBN k/o cell lines
[13]
  growth inhibition compared with A485: outperformed inhibitor A485
[14]; 72 hours, ATPlite, normalized to DMSO
  Kelly NB cell growth inhibition: outperformed positive control A485; also recorded: Cell growth inhibition was observed; also recorded: much higher potency compared to inhibitor alone
[14]; ND: not detected
  IC50: 0.166 µM
[15]
  CBP degradation in CRBN k/o lines: did not degrade
[16]
  CBP level in liver tissue: No changes
